Results on five molecules are retold here after publication PMC8849072, “Sudapyridine (WX-081), a Novel Compound against Mycobacterium tuberculosis” (Microbiology Spectrum, 2022).

Test [1] deals with M. tuberculosis clinical strain 13946. Nature of the test: MIC by microplate alamarBlue assay (MABA). Format: cell-based, Mycobacterium tuberculosis. As to conditions: strain 13946: resistant to INH SM RFP EMB RBT PAS OFX; for MIC: Mycobacterium tuberculosis. In general terms: The colour change of resazurin is a common sign of viable cells or microbes.
In test [2] the test system is M. tuberculosis clinical strain 14550. As to the kind of experiment: MIC by microplate alamarBlue assay (MABA). Format: cell-based, Mycobacterium tuberculosis. The conditions noted are these: strain 14550: resistant to INH SM RFP EMB KM CPM AK 1321 PAS; for MIC: Mycobacterium tuberculosis.
In test [3] the test system is M. tuberculosis clinical strain 14822. Nature of the test: MIC by microplate alamarBlue assay (MABA). It counts as cell-based, Mycobacterium tuberculosis. As to conditions: strain 14822: resistant to INH SM RFP EMB KM RBT AK 1321 PAS; for MIC: Mycobacterium tuberculosis.
Test [4] concerns M. tuberculosis clinical strain 14158. Nature of the test: MIC by microplate alamarBlue assay (MABA). Format: cell-based, Mycobacterium tuberculosis. As to conditions: strain 14158: resistant to INH SM RFP EMB AK 1321 PAS OFX; for MIC: Mycobacterium tuberculosis.
Test [5] concerns M. tuberculosis clinical strain 14441. As to the kind of experiment: MIC by microplate alamarBlue assay (MABA). It counts as cell-based, Mycobacterium tuberculosis. The conditions noted are these: strain 14441: resistant to INH RFP RBT AK CPM 1321 OFX LFX; for MIC: Mycobacterium tuberculosis.
In test [6] the test system is M. tuberculosis clinical strain 14470. Nature of the test: MIC by microplate alamarBlue assay (MABA). Format: cell-based, Mycobacterium tuberculosis. The conditions noted are these: strain 14470: resistant to INH SM RFP EMB KM RBT AK CPM 1321 PAS; for MIC: Mycobacterium tuberculosis.
Test [7] has as its system M. tuberculosis clinical strain 13908. As to the kind of experiment: MIC by microplate alamarBlue assay (MABA). The conditions noted are these: strain 13908: resistant to INH RFP EMB 1321 PAS OFX LFX; for MIC: Mycobacterium tuberculosis. It counts as cell-based, Mycobacterium tuberculosis.
Test [8] concerns M. tuberculosis clinical strain 14282. As to the kind of experiment: MIC by microplate alamarBlue assay (MABA). As to conditions: strain 14282: resistant to INH SM RFP EMB RBT 1321 OFX LFX; for MIC: Mycobacterium tuberculosis. It counts as cell-based, Mycobacterium tuberculosis.
Test [9] deals with M. tuberculosis clinical strain 15321. As to the kind of experiment: MIC by microplate alamarBlue assay (MABA). As to conditions: strain 15321: resistant to INH RFP EMB AK ETO OFX RFT; for MIC: Mycobacterium tuberculosis. It counts as cell-based, Mycobacterium tuberculosis.
The subject of test [10] is M. tuberculosis clinical strain 14619. As to the kind of experiment: MIC by microplate alamarBlue assay (MABA). It counts as cell-based, Mycobacterium tuberculosis. The conditions noted are these: strain 14619: resistant to INH RFP KM CPM AK 1321 PAS; for MIC: Mycobacterium tuberculosis.
The subject of test [11] is M. tuberculosis clinical strain 16030. As to the kind of experiment: MIC by microplate alamarBlue assay (MABA). As to conditions: strain 16030: resistant to INH RFP RFT; for MIC: Mycobacterium tuberculosis. It counts as cell-based, Mycobacterium tuberculosis.
Test [12] deals with M. tuberculosis clinical strain 14862. Nature of the test: MIC by microplate alamarBlue assay (MABA). Format: cell-based, Mycobacterium tuberculosis. As to conditions: strain 14862: resistant to INH SM RFP EMB 1321 CPM PAS; for MIC: Mycobacterium tuberculosis.
The subject of test [13] is M. tuberculosis clinical strain 16825. As to the kind of experiment: MIC by microplate alamarBlue assay (MABA). Format: cell-based, Mycobacterium tuberculosis. The conditions noted are these: strain 16825: resistant to INH RFP AK RFT; for MIC: Mycobacterium tuberculosis.
In test [14] the test system is M. tuberculosis clinical strain 15833. Nature of the test: MIC by microplate alamarBlue assay (MABA). It counts as cell-based, Mycobacterium tuberculosis. The conditions noted are these: strain 15833: resistant to INH RFP RFT; for MIC: Mycobacterium tuberculosis.
For test [15], the system named is M. tuberculosis clinical strain 14092. Nature of the test: MIC by microplate alamarBlue assay (MABA). It counts as cell-based, Mycobacterium tuberculosis. As to conditions: strain 14092: resistant to INH SM RFP; for MIC: Mycobacterium tuberculosis.
Test [16] has as its system M. tuberculosis clinical strain 15321. As to the kind of experiment: MBC determination (CFU-based). As to conditions: strain 15321: resistant to INH RFP EMB AK ETO OFLX RFT; 7 days incubation, 3 log10 CFU decrease.
Test [17] deals with M. tuberculosis clinical strain 14441. As to the kind of experiment: MBC determination (CFU-based). As to conditions: strain 14441: resistant to INH RFP RBT AK CPM 1321 OFLX LVFX; 7 days incubation, 3 log10 CFU decrease.
Test [18] concerns M. tuberculosis clinical strain 14619. Nature of the test: MBC determination (CFU-based). As to conditions: strain 14619: resistant to INH RFP KM CPM AK 1321 PAS; 7 days incubation, 3 log10 CFU decrease.
The test system of test [19] is M. tuberculosis clinical strain 15833. Nature of the test: MBC determination (CFU-based). The conditions noted are these: strain 15833: resistant to INH RFP RFT; 7 days incubation, 3 log10 CFU decrease.

Converted amounts (≈) assume the structure as drawn.

As to `COc1ncc(-c2ccc(Cl)cc2)cc1[C@@H](c1ccccc1)[C@@](O)(CCN(C)C)c1cccc2ccccc12` [WX-081, sudapyridine], the MIC (commonly the smallest concentration in the dilution series that meets the test's criterion for growth inhibition) is 0.098 mg/L (≈ 0.182 µM) in test [1]; 0.17 mg/L (≈ 0.317 µM) in test [2]; 0.48 mg/L (≈ 0.894 µM) in [3]; 0.111 mg/L (≈ 0.207 µM) in test [4]; 0.465 mg/L (≈ 0.866 µM) in test [5]; 0.966 mg/L (≈ 1.8 µM) in test [6]. For the same molecule, the MIC in [7] is 0.849 mg/L (≈ 1.58 µM); in test [8], 0.113 mg/L (≈ 0.21 µM); in [9], 0.109 mg/L (≈ 0.203 µM); in test [10], 0.3 mg/L (≈ 0.559 µM); in test [11], 0.057 mg/L (≈ 0.106 µM); in [12] it was 0.026 mg/L (≈ 0.0484 µM). In addition, the results for the MIC in test [13], in test [14] and in [15] were 0.226 mg/L (≈ 0.421 µM), 0.236 mg/L (≈ 0.439 µM) and 0.235 mg/L (≈ 0.438 µM), respectively. Also, the MBCs is more than 1.25 µg/mL in test [16], more than 5 µg/mL in test [17], 0.313 µg/mL in test [18] and more than 1.25 µg/mL in test [19].

Consider `NC[C@H]1O[C@H](O[C@H]2[C@H](O)[C@@H](O[C@H]3O[C@H](CO)[C@@H](O)[C@H](N)[C@H]3O)[C@H](N)C[C@@H]2N)[C@H](O)[C@@H](O)[C@@H]1O` [KM, kanamycin], for which the MICs was 0.788 µg/mL in test [1]; 1.186 µg/mL in test [2]; more than 40 µg/mL in [3]; more than 40 µg/mL in test [4]; more than 40 µg/mL in test [5]; 0.437 µg/mL in [6]. Besides, the MICs in test [7] was 1.151 µg/mL; in test [8], 1.199 µg/mL; in test [9], more than 40 µg/mL; in [10] it was 1.195 µg/mL; in test [11], 1.072 µg/mL; in test [12], 1.243 µg/mL. Moreover, the MICs in test [13] was more than 40 µg/mL; in [14], 2.302 µg/mL; in [15] it was 1.199 µg/mL.

On to `COc1nc2ccc(Br)cc2cc1[C@@H](c1ccccc1)[C@@](O)(CCN(C)C)c1cccc2ccccc12` [BDQ, bedaquiline], for which the MIC stood at 0.021 mg/L (≈ 0.0378 µM) in [1]; 0.051 mg/L (≈ 0.0918 µM) in test [2]; 0.111 mg/L (≈ 0.2 µM) in test [3]; 0.03 mg/L (≈ 0.054 µM) in test [4]; 0.214 mg/L (≈ 0.385 µM) in test [5]; 0.468 mg/L (≈ 0.842 µM) in test [6]. Moreover, the MIC was 0.266 mg/L (≈ 0.479 µM) in test [7]; 0.053 mg/L (≈ 0.0954 µM) in test [8]; 0.028 mg/L (≈ 0.0504 µM) in [9]; 0.052 mg/L (≈ 0.0936 µM) in test [10]; 0.017 mg/L (≈ 0.0306 µM) in [11]; 0.006 mg/L (≈ 0.0108 µM) in [12]. Besides, the minimum inhibitory concentration (MIC) in test [13] was 0.06 mg/L (≈ 0.108 µM); in [14], 0.09 mg/L (≈ 0.162 µM); in [15], 0.048 mg/L (≈ 0.0864 µM). Further, the MBCs in test [16] was more than 0.313 µg/mL; in [17], more than 2.5 µg/mL; in [18], 0.156 µg/mL; in [19] it was more than 0.32 µg/mL.

Regarding `CO[C@H]1/C=C/O[C@@]2(C)Oc3c(C)c(O)c4c(O)c(c(/C=N/N5CCN(C)CC5)c(O)c4c3C2=O)NC(=O)/C(C)=C\C=C\[C@H](C)[C@H](O)[C@@H](C)[C@@H](O)[C@@H](C)[C@H](OC(C)=O)[C@@H]1C` [RFP, rifampicin], the MIC in test [1], in test [2], in test [3], in test [4], in [5] and in test [6] was more than 40 mg/L in each case. The MIC in test [7] was 6.9 mg/L (≈ 8.39 µM); in test [8], more than 40 mg/L; in [9], more than 40 mg/L; in [10] it was more than 40 mg/L; in [11], more than 40 mg/L; in [12] it was 15.2 mg/L (≈ 18.5 µM). Moreover, the MIC in [13], in [14] and in [15] was more than 40 mg/L throughout.

Regarding `NNC(=O)c1ccncc1` [INH, isoniazid], the MIC in test [1] was 1.81 mg/L (≈ 13.2 µM); in test [2] it was 2.25 mg/L (≈ 16.4 µM); in test [3], more than 40 mg/L; in [4], more than 40 mg/L; in test [5], more than 40 mg/L; in test [6] it was more than 40 mg/L. For the same molecule, the MIC in test [7] stood at 3.01 mg/L (≈ 21.9 µM); in [8] it was 2.35 mg/L (≈ 17.1 µM); in test [9], 1.04 mg/L (≈ 7.56 µM); in test [10], 4.38 mg/L (≈ 31.9 µM); in test [11], 2.45 mg/L (≈ 17.9 µM); in test [12] it was 2.17 mg/L (≈ 15.8 µM). Moreover, the MIC amounted to 2.37 mg/L (≈ 17.3 µM) in test [13], 4.5 mg/L (≈ 32.8 µM) in test [14] and 2.41 mg/L (≈ 17.5 µM) in test [15].
